How the values were obtained:
Type in all cases: cell-based
Settings in all cases: after 10, 20, 40 and 60 minutes at all dilutions 1:100, 1:200, 1:400, 1:800
Escherichia coli = test: Antimicrobial testing by agar dilution, Escherichia coli
Description: (§1) The antimicrobial properties of the ethyl [4,4-bis(4-bromophenyl)-2,5-dioxoimidazolidin-1-yl]acetate was studied by the method of agar dilution. Test solutions of each compound was prepared in concentration of 1% using dimethylformamide as a solvent then they are diluted in physiological solution to obtain the final experimental dilutions 1:100, 1:200, 1:400, 1:800. The effect of these substances are compared with furacillin in a controllable study. The testing microbes used were gram positive bacteria Staphylococcus aureus, gram negative bacteria Escherichia coli, Pseudomonas aeruginosa and Candida albicans fungi were taken. The experiments used for this survey were meat-pentonlu agar (EPA) for cultivation of bacteria and Saburo environment for fungi. Each experiment used 1 ml of test solution on each plate 500 min. Add 2 drops of emulsified with microbes feel. All experimental samples were taken from the agar after 10, 20, 40, 60 minutes in the environment on the basis of Patrk planted. Bacteria were cultivated at a temperature of 37° C. for 1 day and the mushroom was kept in a thermostat for […] at a temperature of 28° C. Then the results were checked.

Staphylococcus aureus = test: Antimicrobial testing by agar dilution, Staphylococcus aureus
Description: as §1

Candida albicans = test: Antimicrobial testing by agar dilution, Candida albicans
Description: as §1

Pseudomonas aeruginosa = test: Antimicrobial testing by agar dilution, Pseudomonas aeruginosa
Description: as §1

Measured: inhibition activity

CCOC(=O)CN1C(=O)NC(c2ccc(Br)cc2)(c2ccc(Br)cc2)C1=O [ethyl [4,4-bis(4-bromophenyl)-2,5-dioxoimidazolidin-1-yl]acetate]
higher inhibition activity: all assays above

Reference: patent US11993575B1, “Ethyl [4,4-bis(4-bromophenyl)-2,5-dioxoimidazolidin-1-yl]acetate as an antimicrobial compound” (KING FAISAL UNIVERSITY, priority 2023, dated 2024)
